Laboratory results as given in PubChem BioAssay AID463089 (NMMLSC, 2010).
Calls of active or inactive are those of the source.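 Rule for the calls: active = compound whose binding-signal loss grows with dose, reaching half its maximum below 10 micromolar; inactive = the rest.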

How the values were obtained:
[1] = biological target: Mitogen-activated protein kinase kinase kinase 2 (Homo sapiens) (UniProt Q9Y2U5); experiment: modulators of MEKK2-MEK5 PB1 interaction, dose response, biochemical, TR-FRET, Eu and Cy5 interference panels (AID 463089); conditions: TR-FRET MEKK2-MEK5 PB1 binding, TR-FRET binding assay; for response (panel-specific, % change): at 30 µM (top of the series)
[2] = as above; conditions: TR-FRET MEKK2-MEK5 PB1 binding; for response (panel-specific, % change): at 30 µM (top of the series)
[3] = Cy5 fluorescence 665 nm counterscreen
[4] = Eu fluorescence 620 nm counterscreen

Mitogen-activated protein kinase kinase kinase 2 (Homo sapiens), sequence (Q9Y2U5 whole entry, looked up): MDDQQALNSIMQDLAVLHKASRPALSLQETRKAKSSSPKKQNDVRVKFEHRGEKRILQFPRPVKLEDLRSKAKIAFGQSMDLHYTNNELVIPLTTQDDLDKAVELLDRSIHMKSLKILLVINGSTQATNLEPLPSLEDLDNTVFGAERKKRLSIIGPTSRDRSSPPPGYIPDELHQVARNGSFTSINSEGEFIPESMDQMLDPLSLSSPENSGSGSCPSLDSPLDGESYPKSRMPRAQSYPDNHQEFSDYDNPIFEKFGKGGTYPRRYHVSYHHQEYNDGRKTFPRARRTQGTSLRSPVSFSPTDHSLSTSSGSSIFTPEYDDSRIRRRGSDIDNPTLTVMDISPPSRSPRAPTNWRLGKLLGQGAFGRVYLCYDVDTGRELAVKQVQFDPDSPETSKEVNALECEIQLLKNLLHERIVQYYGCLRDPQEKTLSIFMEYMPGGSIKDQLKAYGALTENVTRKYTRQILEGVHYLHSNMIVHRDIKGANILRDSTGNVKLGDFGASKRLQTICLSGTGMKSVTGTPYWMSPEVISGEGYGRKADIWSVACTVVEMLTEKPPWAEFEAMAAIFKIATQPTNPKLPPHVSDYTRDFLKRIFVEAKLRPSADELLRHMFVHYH

Structure (SMILES): CCN1/C(=C/C(C)=C/c2sc3ccccc3[n+]2CC)Sc2ccccc21
- response (panel-specific, % change) [1]: inactive
- response (panel-specific, % change) [2, 3]: inactive
- EC50 [2, 4]: 2 µM

Structure (SMILES): Nc1cc2nc[nH]c2cc1N
- EC50 [1]: 2 µM
- response (panel-specific, % change) [2, 3]: inactive
- EC50 [2, 4]: 1.5 µM

Structure (SMILES): COc1cccc(OC)c1-c1nn2c(-c3cc(-c4ccccc4)n[nH]3)nnc2s1
- EC50 [1]: 2.2 µM
- response (panel-specific, % change) [2, 3]: inactive
- response (panel-specific, % change) [2, 4]: inactive

Structure (SMILES): CCC(=C/c1sc2ccc3ccccc3c2[n+]1C)/C=C1\Sc2ccc3ccccc3c2N1C
- response (panel-specific, % change) [1]: inactive
- EC50 [2, 3]: 4.1 µM
- EC50 [2, 4]: 1.9 µM

Structure (SMILES): CCNc1ccc2noc3c2c1C(=O)c1ccccc1-3
- EC50 [1]: 3.5 µM
- response (panel-specific, % change) [2, 3]: inactive
- EC50 [2, 4]: 1.6 µM

Structure (SMILES): CN1CCN(c2ccc(NC(=O)c3ccc(-c4ccc(Cl)cc4)o3)cc2)CC1
- response (panel-specific, % change) [2, 3]: inactive
- response (panel-specific, % change) [2, 4]: inactive
